Measured values taken from patent US9901579B2, “Compositions comprising phosphodiesterase inhibitors for use in the treatment of a solid tumor in a human patient” (Sartar Therapeutics Ltd, priority 2013, dated 2018).
Where a name gives a salt, the structure may show the parent alone.

Experiments:
Type in all cases: cell-based, human
[1] = tested on: GIST cell cultures (GIST48 and GIST882); experiment: xCELLigence System / RTCA DP proliferation analysis; conditions: 10 μmol/L or higher concentration
Description: Four different PDE3-inhibitors were used to block the activity of PDE3 enzymes and two kinase-inhibitors to block the activity of KIT and PDGFRA. Cilostazol, milrinone and amrinone were purchased from Sigma (St Louis, Mo., USA) and anagrelide hydrochloride was purchased from Tocris Bioscience (Bristol, UK). […] All other inhibitors were reconstituted in DMSO. In a preliminary analysis, multiple drug concentrations (from 0 to 100 μmol/L) were used to identify effective PDE3 inhibitor doses in the GIST cell lines. Effects on proliferation were analysed using xCELLigence System and the RTCA DP instrument (Acea Biosciences, San Diego, Calif., USA). […] Cell progression to apoptosis after anagrelide hydrochloride treatment was analysed in eight duplicate wells with a Click-iT TUNEL Alexa Fluor 488 Imaging Assay (Invitrogen, Carlsbad, Calif., USA) according to the manufacturer's instructions. Progression to apoptosis was measured after 48 hours and after 96 hours of drug treatments. Cell proliferation was examined by the MTT assay (Roche Diagnostics, Indianapolis, Ind., USA) and the xCELLigence System using the RTCA DP instrument (Acea Biosciences). […] At the end of the incubation, cell proliferation was analyzed from eight duplicate wells by adding 10 μL of the MTT reagent into each well and incubating at 37° C. for four hour. The plates were read with a Multiscan EX Microplate photometer (Thermo Scientific, Rockford, Ill., USA) at the wavelength of 540 nm. For the xCELLigence proliferation assay GIST48 and GIST882 cells were plated at a density of 2.5×10^4 cells/well. Before plating GIST882 cells, the wells were thin coated with Collagen I Rat Tail (Invitrogen, Carlsbad, Calif., USA) according to the manufacturer's instructions using 7.5 μg/mL final collagen concentration.

[2] = tested on: LPS141 liposarcoma cell line; experiment: MTT cell proliferation assay, LPS141; conditions: 10 μmol/L, 96 hours (four day culture)
Protocol: (§1) GIST882 is a primary human GIST cell line with a homozygous missense mutation in KIT exon 13, encoding a […] mutant KIT oncoprotein (Tuveson, D. A. 2001). […] GIST48 has a primary exon 11 missense mutation and a secondary exon 17 missense mutation (Bauer, S. 2006). LPS141 is a liposarcoma cell line that is established from patient derived de-differentiated liposarcoma (Snyder, E. L. 2009). The cell lines were cultured in a RPMI 1640 medium (GIBCO, California USA) supplemented with 20% fetal bovine serum (FBS) and 2% penicillin/streptomycin. Four different PDE3-inhibitors were used to block the activity of PDE3 enzymes and two kinase-inhibitors to block the activity of KIT and PDGFRA. […] Effects on proliferation were analysed using xCELLigence System and the RTCA DP instrument (Acea Biosciences, San Diego, Calif., USA). […] Cell progression to apoptosis after anagrelide hydrochloride treatment was analysed in eight duplicate wells with a Click-iT TUNEL Alexa Fluor 488 Imaging Assay (Invitrogen, Carlsbad, Calif., USA) according to the manufacturer's instructions. Progression to apoptosis was measured after 48 hours and after 96 hours of drug treatments. […] At the end of the incubation, cell proliferation was analyzed from eight duplicate wells by adding 10 μL of the MTT reagent into each well and incubating at 37° C. for four hour. […]

GIST882 cells [3] = experiment: Click-iT TUNEL apoptosis assay, GIST882; conditions: anagrelide hydrochloride 10 μmol/L, imatinib 0.5 μmol/L
Protocol: (§2) GIST882 is a primary human GIST cell line with a homozygous missense mutation in KIT exon 13, encoding a […] mutant KIT oncoprotein (Tuveson, D. A. 2001). […] GIST48 has a primary exon 11 missense mutation and a secondary exon 17 missense mutation (Bauer, S. 2006). LPS141 is a liposarcoma cell line that is established from patient derived de-differentiated liposarcoma (Snyder, E. L. 2009). The cell lines were cultured in a RPMI 1640 medium (GIBCO, California USA) supplemented with 20% fetal bovine serum (FBS) and 2% penicillin/streptomycin. Four different PDE3-inhibitors were used to block the activity of PDE3 enzymes and two kinase-inhibitors to block the activity of KIT and PDGFRA. Cilostazol, milrinone and amrinone were purchased from Sigma (St Louis, Mo., USA) and anagrelide hydrochloride was purchased from Tocris Bioscience (Bristol, UK). […] All other inhibitors were reconstituted in DMSO. […] Effects on proliferation were analysed using xCELLigence System and the RTCA DP instrument (Acea Biosciences, San Diego, Calif., USA). […] Cell progression to apoptosis after anagrelide hydrochloride treatment was analysed in eight duplicate wells with a Click-iT TUNEL Alexa Fluor 488 Imaging Assay (Invitrogen, Carlsbad, Calif., USA) according to the manufacturer's instructions. Progression to apoptosis was measured after 48 hours and after 96 hours of drug treatments.

GIST882 cells [4] = experiment: MTT cell proliferation assay, GIST882; conditions: 10 μmol/L, 96 hours (four day culture)
Protocol: as §1

GIST48 cells = experiment: Click-iT TUNEL apoptosis assay, GIST48; conditions: for apoptotic GIST48 cells: anagrelide hydrochloride 10 μmol/L, imatinib 0.5 μmol/L
Protocol: as §2

Nc1cc(-c2ccncc2)c[nH]c1=O [amrinone]
anti-proliferative effect on GIST cell cultures [1]: some anti-proliferative effect

O=C1CN2Cc3c(ccc(Cl)c3Cl)N=C2N1 [anagrelide hydrochloride, 6,7-dichloro-1,5-dihydroimidazo[2,1-b]quinazolin-2(3H)-one]
effect on LPS141 cell growth in comparison with DMSO [2]: the only PDE3 inhibitor that had an effect
anti-proliferative effect on GIST cell cultures [1]: some anti-proliferative effect
apoptotic GIST882 cells (GIST882 cells [3]; after 48 hours): 22%
apoptotic GIST882 cells (GIST882 cells [3]; after 96 hours): 47%
effect on GIST882 cell growth in comparison with DMSO (GIST882 cells [4]): the only PDE3 inhibitor that had an effect
apoptotic GIST48 cells (GIST48 cells; after 48 hours): 0.6%
apoptotic GIST48 cells (GIST48 cells; after 96 hours): 1%
DNA fragmentation in GIST48 cells (GIST48 cells; anagrelide hydrochloride treatment): only slight DNA fragmentation

O=C1CCc2cc(OCCCCc3nnnn3C3CCCCC3)ccc2N1 [cilostazol]
anti-proliferative effect on GIST cell cultures [1]: did not influence cell proliferation

Cc1[nH]c(=O)c(C#N)cc1-c1ccncc1 [milrinone]
anti-proliferative effect on GIST cell cultures [1]: did not influence cell proliferation
